Experimental data taken from US8952024B2, “Herbicidal pyrimidone derivatives” (E I du Pont de Nemours and Company, priority 2009, dated 2015).

Columns and labels:
[1] = system: spanishneedles (Bidens bipinnata); experiment: Test D pre-/postemergence plant response; format: in vivo
Summary of the method: (§1)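 Pre + post applications; loam/sand soil; solvent + surfactant vehicle; post-em plants 1- to 4-leaf (2–18 cm); greenhouse 14–21 d; visual score 0 (none) to 100 (full control) vs untreated.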

[2] = system: Italian ryegrass (Lolium multiflorum); experiment: Test D pre-/postemergence plant response; format: in vivo
Summary of the method: as §1

[3] = system: bermudagrass (Cynodon dactylon); experiment: Test D pre-/postemergence plant response; format: in vivo
Summary of the method: as §1

[4] = system: groundsel (common groundsel, Senecio vulgaris); experiment: Test D pre-/postemergence plant response; format: in vivo; conditions: Postemergence
Summary of the method: as §1

[5] = system: black mustard (Brassica nigra); experiment: Test D pre-/postemergence plant response; format: in vivo
Summary of the method: as §1

[6] = system: deadnettle (henbit deadnettle, Lamium amplexicaule); experiment: Test B pre-/postemergence plant response; format: in vivo; conditions: Postemergence
Summary of the method: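 Compound in solvent + surfactant applied pre-em (loam/sand) or post-em (plants 2–18 cm, peat medium); greenhouse hold 13–15 days; visual 0–100 control score.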

[7] = Postemergence, 16 g ai/ha, scale 0 to 100
[8] = Postemergence, 31 g ai/ha, scale 0 to 100
[9] = Postemergence, 125 g ai/ha, scale 0 to 100 (0 no effect, 100 complete control)
[10] = Postemergence, 62 g ai/ha, scale 0 to 100 (0 no effect, 100 complete control)
[11] = Preemergence, 16 g ai/ha, scale 0 to 100, 0 no effect, 100 complete control
[12] = Preemergence, 31 g ai/ha, scale 0 to 100 (0 no effect, 100 complete control)
[13] = Preemergence, 125 g ai/ha, scale 0 to 100
[14] = Preemergence, rate not given, scale 0 to 100, 0 no effect, 100 complete control
[15] = Postemergence, 31 g ai/ha, scale 0 to 100 (0 no effect, 100 complete control)
[16] = Preemergence, 62 g ai/ha, scale 0 to 100
[17] = 125 g ai/ha, scale 0 to 100 (0 no effect, 100 complete control)
[18] = 62 g ai/ha, scale 0 to 100 (0 no effect, 100 complete control)
[19] = 31 g ai/ha, 0 to 100 scale (0 no effect, 100 complete control)
[20] = 250 g ai/ha, scale 0 to 100 (0 no effect, 100 complete control), 13 to 15 days
[21] = Postemergence, 250 g ai/ha, scale 0 to 100 (0 no effect, 100 complete control)
[22] = 250 g ai/ha, scale 0 to 100 (0 no effect, 100 complete control)

In the case of Cc1c(F)cccc1-n1c(-c2ccccc2)ncc(C(=O)C2=C(O)CCCC2=O)c1=O [Compound 47, 3-(3-fluoro-2-methylphenyl)-5-[(2-hydroxy-6-oxo-1-cyclohexen-1-yl)carbonyl]-2-phenyl-4(3H)-pyrimidinone], the “Plant response rating, Spanishneedles” value [1, 7] is reported as 35, the “Plant response rating, Spanishneedles” value [1, 8] is reported as 40 and the “Plant response rating, Spanishneedles” value [1, 9] is reported as 70. For the same compound, the “Plant response rating, Spanishneedles” value [1, 10] was 65, the “Plant response rating, Spanishneedles” value [1, 11] was 0 and the “Plant response rating, Spanishneedles” value [1, 12] was 95. The “Plant response rating, Spanishneedles” value [1, 13] was 95, the “Plant response rating, Spanishneedles” value [1, 14] was 95 and the “Plant response rating, Ryegrass, Italian” value [2, 7] was 0. The “Plant response rating, Ryegrass, Italian” value [2, 8] was 10, the “Plant response rating, Ryegrass, Italian” value [2, 9] was 30 and the “Plant response rating, Ryegrass, Italian” value [2, 10] was 20. The “Plant response rating, Ryegrass, Italian” value [2, 11] was 0, the “Plant response rating, Ryegrass, Italian” value [2, 12] was 0 and the “Plant response rating, Ryegrass, Italian” value [2, 13] was 0. The “Plant response rating, Ryegrass, Italian” value [2, 14] was 0, the “Plant response rating, Bermudagrass” value [3, 7] was 50 and the “Plant response rating, Bermudagrass” value [3, 15] was 50. For the same compound, the “Plant response rating, Bermudagrass” value [3, 9] was 90, the “Plant response rating, Bermudagrass” value [3, 10] was 70 and the “Plant response rating, Bermudagrass” value [3, 11] was 10. For the same compound, the “Plant response rating, Bermudagrass” value [3, 12] was 25, the “Plant response rating, Bermudagrass” value [3, 16] was 50 and the “Plant response rating, Bermudagrass” value [3, 13] was 100. The “Plant response rating, Groundsel” value ([4]; 16 g ai/ha, scale 0 to 100) was 100, the “Plant response rating, Groundsel” value ([4]; 31 g ai/ha, scale 0 to 100) was 100 and the “Plant response rating, Groundsel” value [4, 17] was 100. For the same compound, the “Plant response rating, Groundsel” value [4, 18] was 100, the “Plant response rating, Black Mustard” value [5, 7] was 95 and the “Plant response rating, Black Mustard” value [5, 15] was 100. For the same compound, the “Plant response rating, Black Mustard” value [5, 9] was 100, the “Plant response rating, Black Mustard” value [5, 10] was 100 and the “Plant response rating, Black Mustard” value [5, 11] was 0. For the same compound, the “Plant response rating, Black Mustard” value [5, 12] was 65, the “Plant response rating, Black Mustard” value [5, 16] was 80 and the “Plant response rating, Black Mustard” value [5, 13] was 100. It also gave a melting point of 168 to 169 °C.
With COCCCn1c(-c2ccccc2)ncc(C(=O)C2=C(O)CCCC2=O)c1=O [Compound 81, 5-[(2-hydroxy-6-oxo-cyclohexen-1-yl)carbonyl]-3-(3-methoxypropyl)-2-phenyl-4(3H)-pyrimidinone] the melting point was 121 to 122 °C.
For O=C1CCCC(O)=C1C(=O)c1cnc(-c2ccccc2)n(C2CCCCC2)c1=O [Compound 128, 3-cyclohexyl-5-[(2-hydroxy-6-oxo-1-cyclohexen-1-yl)carbonyl]-2-phenyl-4(3H)-pyrimidinone], the “Plant response rating, Spanishneedles” value [1, 7] was 35, the “Plant response rating, Spanishneedles” value [1, 8] was 50 and the “Plant response rating, Spanishneedles” value [1, 9] was 65. For the same compound, the “Plant response rating, Spanishneedles” value [1, 10] was 50, the “Plant response rating, Spanishneedles” value [1, 11] was 0 and the “Plant response rating, Spanishneedles” value [1, 12] was 0. The “Plant response rating, Spanishneedles” value [1, 13] was 100, the “Plant response rating, Spanishneedles” value [1, 14] was 90 and the “Plant response rating, Ryegrass, Italian” value [2, 7] was 0. The “Plant response rating, Ryegrass, Italian” value [2, 8] was 0, the “Plant response rating, Ryegrass, Italian” value [2, 9] was 5 and the “Plant response rating, Ryegrass, Italian” value [2, 10] was 0. The “Plant response rating, Ryegrass, Italian” value [2, 11] was 0, the “Plant response rating, Ryegrass, Italian” value [2, 12] was 0 and the “Plant response rating, Ryegrass, Italian” value [2, 13] was 0. For the same compound, the “Plant response rating, Ryegrass, Italian” value [2, 14] was 0, the “Plant response rating, Bermudagrass” value [3, 7] was 70 and the “Plant response rating, Bermudagrass” value [3, 15] was 70. The “Plant response rating, Bermudagrass” value [3, 9] was 90, the “Plant response rating, Bermudagrass” value [3, 10] was 80 and the “Plant response rating, Bermudagrass” value [3, 11] was 0. For the same compound, the “Plant response rating, Bermudagrass” value [3, 12] was 0, the “Plant response rating, Bermudagrass” value [3, 16] was 65 and the “Plant response rating, Bermudagrass” value [3, 13] was 75. The “Plant response rating, Groundsel” value ([4]; 16 g ai/ha, scale 0 to 100) was 100, the “Plant response rating, Groundsel” value ([4]; 31 g ai/ha, scale 0 to 100) was 100 and the “Plant response rating, Groundsel” value [4, 17] was 100. For the same compound, the “Plant response rating, Groundsel” value [4, 18] was 100, the “Plant response rating, Black Mustard” value [5, 7] was 95 and the “Plant response rating, Black Mustard” value [5, 15] was 95. For the same compound, the “Plant response rating, Black Mustard” value [5, 9] was 95, the “Plant response rating, Black Mustard” value [5, 10] was 95 and the “Plant response rating, Black Mustard” value [5, 11] was 60. For the same compound, the “Plant response rating, Black Mustard” value [5, 12] was 60, the “Plant response rating, Black Mustard” value [5, 16] was 85 and the “Plant response rating, Black Mustard” value [5, 13] was 95.
With O=C1CCCC(O)=C1C(=O)c1cnc(-c2ccsc2)n(C2CCOCC2)c1=O [Compound 186] the “Plant response rating, Deadnettle” value [6, 19] was 90, the “Plant response rating, Deadnettle” value [6, 17] was 100 and the “Plant response rating, Deadnettle” value [6, 20] was 100.
In the case of CCCCn1c(C2CC2)ncc(C(=O)C2=C(O)CCCC2=O)c1=O [Compound 193], the “Plant response rating, Deadnettle” value [6, 19] is reported as 100, the “Plant response rating, Deadnettle” value [6, 17] is reported as 100 and the “Plant response rating, Deadnettle” value [6, 20] is reported as 100. For the same compound, the “Plant response rating, Deadnettle” value [6, 18] was 100.
With CCCn1c(-c2ccccc2)ncc(C(=O)C2=C(O)C3CCC(C3)C2=O)c1=O (stereo not drawn) [Compound 226] the “Plant response rating, Spanishneedles” value [1, 9] was 75, the “Plant response rating, Spanishneedles” value [1, 21] was 80 and the “Plant response rating, Spanishneedles” value [1, 10] was 75. For the same compound, the “Plant response rating, Ryegrass, Italian” value [2, 9] was 0, the “Plant response rating, Ryegrass, Italian” value [2, 21] was 15 and the “Plant response rating, Ryegrass, Italian” value [2, 10] was 0. For the same compound, the “Plant response rating, Bermudagrass” value [3, 15] was 90, the “Plant response rating, Bermudagrass” value [3, 9] was 95 and the “Plant response rating, Bermudagrass” value [3, 21] was 98. The “Plant response rating, Bermudagrass” value [3, 10] was 95, the “Plant response rating, Groundsel” value [4, 17] was 95 and the “Plant response rating, Groundsel” value [4, 22] was 100. For the same compound, the “Plant response rating, Groundsel” value [4, 18] was 90, the “Plant response rating, Black Mustard” value [5, 15] was 65 and the “Plant response rating, Black Mustard” value [5, 9] was 80. For the same compound, the “Plant response rating, Black Mustard” value [5, 21] was 85 and the “Plant response rating, Black Mustard” value [5, 10] was 80.
With CCCCn1c(-c2ccccc2)ncc(C(=O)C2=C(O)C3CCC(C3)C2=O)c1=O (stereo not drawn) [Compound 240] the “Plant response rating, Spanishneedles” value [1, 8] was 65, the “Plant response rating, Spanishneedles” value [1, 9] was 75 and the “Plant response rating, Spanishneedles” value [1, 21] was 75. For the same compound, the “Plant response rating, Spanishneedles” value [1, 10] was 65, the “Plant response rating, Ryegrass, Italian” value [2, 8] was 0 and the “Plant response rating, Ryegrass, Italian” value [2, 9] was 35. The “Plant response rating, Ryegrass, Italian” value [2, 21] was 35, the “Plant response rating, Ryegrass, Italian” value [2, 10] was 35 and the “Plant response rating, Bermudagrass” value [3, 8] was 85. The “Plant response rating, Bermudagrass” value [3, 9] was 95, the “Plant response rating, Bermudagrass” value [3, 21] was 95 and the “Plant response rating, Bermudagrass” value [3, 10] was 95. For the same compound, the “Plant response rating, Groundsel” value ([4]; 31 g ai/ha, scale 0 to 100) was 100, the “Plant response rating, Groundsel” value [4, 17] was 100 and the “Plant response rating, Groundsel” value [4, 22] was 100. For the same compound, the “Plant response rating, Groundsel” value [4, 18] was 100, the “Plant response rating, Black Mustard” value [5, 8] was 70 and the “Plant response rating, Black Mustard” value [5, 9] was 98. For the same compound, the “Plant response rating, Black Mustard” value [5, 21] was 98 and the “Plant response rating, Black Mustard” value [5, 10] was 80.
With COCCCn1c(-c2cc(F)cc(F)c2)ncc(C(=O)C2=C(O)C3CCC(C3)C2=O)c1=O (stereo not drawn) [Compound 244] the “Plant response rating, Spanishneedles” value [1, 8] was 65, the “Plant response rating, Spanishneedles” value [1, 9] was 75 and the “Plant response rating, Spanishneedles” value [1, 21] was 75. The “Plant response rating, Spanishneedles” value [1, 10] was 65, the “Plant response rating, Ryegrass, Italian” value [2, 8] was 5 and the “Plant response rating, Ryegrass, Italian” value [2, 9] was 35. For the same compound, the “Plant response rating, Ryegrass, Italian” value [2, 21] was 60, the “Plant response rating, Ryegrass, Italian” value [2, 10] was 15 and the “Plant response rating, Bermudagrass” value [3, 8] was 80. The “Plant response rating, Bermudagrass” value [3, 9] was 95, the “Plant response rating, Bermudagrass” value [3, 21] was 95 and the “Plant response rating, Bermudagrass” value [3, 10] was 80. For the same compound, the “Plant response rating, Groundsel” value ([4]; 31 g ai/ha, scale 0 to 100) was 100, the “Plant response rating, Groundsel” value [4, 17] was 100 and the “Plant response rating, Groundsel” value [4, 22] was 100. The “Plant response rating, Groundsel” value [4, 18] was 100, the “Plant response rating, Black Mustard” value [5, 8] was 50 and the “Plant response rating, Black Mustard” value [5, 9] was 95. The “Plant response rating, Black Mustard” value [5, 21] was 98 and the “Plant response rating, Black Mustard” value [5, 10] was 75.
